Reference: ChEMBL document CHEMBL1201862, “PubChem BioAssay data set” (2004)
Activity calls are given as the source filed them.

Assays:
[1] = target: Lytic switch protein BZLF1 (Epstein-Barr virus (strain B95-8) (HHV-4) (Human herpesvirus 4), UniProt P03206); assay: inhibition of BZLF1 ZTA DNA binding – biochemical, fluorescence polarization, Epstein-Barr virus, 1536-well, counter-screen for EBNA-1 inhibitor project, dose response (AID 2377); parameters: species or system human gammaherpesvirus 4;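 also: fluorescence polarization of Cy5-labelled ZRE DNA probe bound by purified Zta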
[2] = target: Epstein-Barr nuclear antigen 1 (Epstein-Barr virus (strain B95-8) (HHV-4) (Human herpesvirus 4), UniProt P03211); assay: inhibition of EBV nuclear antigen 1 DNA binding – biochemical, fluorescence polarization, 1536-well, dose response (AID 2381); parameters: species or system human gammaherpesvirus 4;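 also: fluorescence polarization of a Cy5 DNA probe bound by EBNA-1 protein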
[3] = target: T1, Short transient receptor potential channel 4 (Mus musculus, UniProt Q9QUQ5); assay: block of DAMGO-driven TRPC4 calcium entry – cell-based, HEK293 TRPC4/mu-opioid, Fluo-4 calcium, dose response (AID 434942); type: functional;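 also: potency of inhibitors blocking the TRPC4 calcium response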
T1 sequence (Q9QUQ5 whole entry): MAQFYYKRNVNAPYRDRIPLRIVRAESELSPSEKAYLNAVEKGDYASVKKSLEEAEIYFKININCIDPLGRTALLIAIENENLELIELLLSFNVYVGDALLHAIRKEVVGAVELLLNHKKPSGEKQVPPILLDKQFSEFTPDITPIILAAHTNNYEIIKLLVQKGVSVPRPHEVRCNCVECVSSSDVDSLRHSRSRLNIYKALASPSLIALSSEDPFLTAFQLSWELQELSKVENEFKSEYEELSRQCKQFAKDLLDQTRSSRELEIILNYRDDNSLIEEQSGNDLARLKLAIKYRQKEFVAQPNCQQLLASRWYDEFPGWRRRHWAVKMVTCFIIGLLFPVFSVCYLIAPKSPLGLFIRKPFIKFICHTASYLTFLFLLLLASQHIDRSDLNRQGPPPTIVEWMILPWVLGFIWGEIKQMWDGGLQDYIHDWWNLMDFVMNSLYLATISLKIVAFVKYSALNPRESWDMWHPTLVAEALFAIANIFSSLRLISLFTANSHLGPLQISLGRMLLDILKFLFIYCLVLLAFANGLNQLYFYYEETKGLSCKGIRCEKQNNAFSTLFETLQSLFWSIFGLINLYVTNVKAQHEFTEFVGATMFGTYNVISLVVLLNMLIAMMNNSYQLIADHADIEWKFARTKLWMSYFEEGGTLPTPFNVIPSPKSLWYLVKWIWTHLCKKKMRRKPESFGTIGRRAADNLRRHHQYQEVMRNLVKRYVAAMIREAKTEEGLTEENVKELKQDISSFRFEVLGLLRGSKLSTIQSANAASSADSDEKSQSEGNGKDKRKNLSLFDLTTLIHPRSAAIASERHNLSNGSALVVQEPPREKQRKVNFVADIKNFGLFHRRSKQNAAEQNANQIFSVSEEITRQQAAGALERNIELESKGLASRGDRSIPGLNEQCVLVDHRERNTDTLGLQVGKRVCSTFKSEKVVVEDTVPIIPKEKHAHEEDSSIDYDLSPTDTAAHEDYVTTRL

[4] = target: Peroxisome proliferator-activated receptor gamma/Nuclear receptor coactivator 3 (Homo sapiens, UniProt P37231); type: functional;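 also: agonist potency for raising coactivator recruitment to the receptor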
[5] = target: Peroxisome proliferator-activated receptor gamma/Nuclear receptor coactivator 2 (Homo sapiens, UniProt P37231); type: functional;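 also: agonist potency for raising coactivator recruitment to the receptor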
[6] = target: Peroxisome proliferator-activated receptor gamma/Nuclear receptor coactivator 1 (Homo sapiens, UniProt P37231); type: functional;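 also: agonist potency as compounds enhance coactivator SRC-1 recruitment to PPARgamma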
H4 = assay: Luminescence Cell-Based Dose Response HTS to Identify Activators of 5'UTR Stem-Loop Driven Prion Protein mRNA Translation in H4 Neuroglioblastoma Cells. [Related pubchem assays: 1829 (Project Summary), 1814 (Primary HTS)]; type: functional; conditions: Homo sapiens
[7] = Luminescence Cell-Based Dose Response HTS to Identify Activators of Luciferase Translation or Activity in H4 […] Cells. [Related pubchem assays: 1829 (Project Summary), 1814 (Primary HTS)]; type: functional
[8] = Luminescence Cell-Based Dose Confirmation to Identify Activators of 5'UTR Stem-Loop Driven Alpha-Synuclein mRNA Translation in H4 Neuroglioblastoma Cells. [Related pubchem assays: 1829 (Project Summary), 1814 (Primary HTS)]; type: functional
[9] = Luminescence Cell-Based Dose Response to Identify Activators of Luciferase Translation or Activity in H4-C Neuroglioblastoma Cells. [Related pubchem assays: 1829 (Project Summary), 1814 (Primary HTS)]; type: functional
[10] = Luminescence Cell-Based Dose Response to Identify Activators of 5'UTR Stem-Loop Driven Prion Protein mRNA Translation in H4-C Neuroglioblastoma Cells. [Related pubchem assays: 1829 (Project Summary), 1814 (Primary HTS)]; type: functional
HT-1080 = assay: HT1080 cell viability loss – fluorescence readout (AID 620); type: functional, cell-based; conditions: Homo sapiens
[11] = target: Luciferin 4-monooxygenase (Photinus pyralis, UniProt P08659); assay: Counter Screen for Luciferase-based Assay Positives. [Related pubchem assays: 620, 618, 411 ]
[12] = target: T2, Neuropeptide Y receptor type 1 (Homo sapiens, UniProt P25929); type: functional;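 also: HEK293 cells with a CNG channel challenged with NPY then isoproterenol; potency as antagonist that reverses NPY suppression of cAMP signal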
T2 sequence (P25929 whole entry): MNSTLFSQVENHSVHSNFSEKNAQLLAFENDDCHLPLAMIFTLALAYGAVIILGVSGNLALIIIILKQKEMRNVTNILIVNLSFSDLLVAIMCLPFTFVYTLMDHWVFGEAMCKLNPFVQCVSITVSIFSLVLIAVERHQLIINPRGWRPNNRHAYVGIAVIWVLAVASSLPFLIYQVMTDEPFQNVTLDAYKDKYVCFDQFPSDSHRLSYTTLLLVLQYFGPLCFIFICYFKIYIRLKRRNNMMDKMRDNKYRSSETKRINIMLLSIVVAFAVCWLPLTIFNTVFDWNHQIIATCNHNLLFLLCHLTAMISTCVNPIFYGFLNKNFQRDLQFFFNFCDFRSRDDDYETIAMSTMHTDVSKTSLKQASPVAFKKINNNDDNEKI

[13] = target: T3, Neuropeptide Y receptor type 2 (Homo sapiens, UniProt P49146); type: functional, cell-based;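 also: HEK293 cells expressing the receptor and a CNG channel; stimulus was NPY near EC95 followed by isoproterenol to raise cAMP; antagonist potency measured as restoring cAMP signal that NPY suppresses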
T3 sequence (P49146 whole entry): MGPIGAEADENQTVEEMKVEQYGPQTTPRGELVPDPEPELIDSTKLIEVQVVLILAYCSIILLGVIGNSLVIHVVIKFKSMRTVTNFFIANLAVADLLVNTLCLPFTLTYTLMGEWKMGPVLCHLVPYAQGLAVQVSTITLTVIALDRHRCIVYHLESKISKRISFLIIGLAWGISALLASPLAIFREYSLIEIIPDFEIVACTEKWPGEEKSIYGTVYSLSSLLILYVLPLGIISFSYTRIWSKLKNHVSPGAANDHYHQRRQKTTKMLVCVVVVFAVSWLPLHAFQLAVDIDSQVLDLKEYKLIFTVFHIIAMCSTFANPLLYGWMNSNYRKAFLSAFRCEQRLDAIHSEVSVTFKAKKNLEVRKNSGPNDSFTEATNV

[14] = target: T4, DNA repair and recombination protein RAD54-like (Homo sapiens, UniProt Q92698); assay: RAD54 Holliday junction migration blockers – biochemical, fluorescence, cherry-picked samples, dose series, confirmation (AID 651657); type: functional
T4 sequence (Q92698 whole entry): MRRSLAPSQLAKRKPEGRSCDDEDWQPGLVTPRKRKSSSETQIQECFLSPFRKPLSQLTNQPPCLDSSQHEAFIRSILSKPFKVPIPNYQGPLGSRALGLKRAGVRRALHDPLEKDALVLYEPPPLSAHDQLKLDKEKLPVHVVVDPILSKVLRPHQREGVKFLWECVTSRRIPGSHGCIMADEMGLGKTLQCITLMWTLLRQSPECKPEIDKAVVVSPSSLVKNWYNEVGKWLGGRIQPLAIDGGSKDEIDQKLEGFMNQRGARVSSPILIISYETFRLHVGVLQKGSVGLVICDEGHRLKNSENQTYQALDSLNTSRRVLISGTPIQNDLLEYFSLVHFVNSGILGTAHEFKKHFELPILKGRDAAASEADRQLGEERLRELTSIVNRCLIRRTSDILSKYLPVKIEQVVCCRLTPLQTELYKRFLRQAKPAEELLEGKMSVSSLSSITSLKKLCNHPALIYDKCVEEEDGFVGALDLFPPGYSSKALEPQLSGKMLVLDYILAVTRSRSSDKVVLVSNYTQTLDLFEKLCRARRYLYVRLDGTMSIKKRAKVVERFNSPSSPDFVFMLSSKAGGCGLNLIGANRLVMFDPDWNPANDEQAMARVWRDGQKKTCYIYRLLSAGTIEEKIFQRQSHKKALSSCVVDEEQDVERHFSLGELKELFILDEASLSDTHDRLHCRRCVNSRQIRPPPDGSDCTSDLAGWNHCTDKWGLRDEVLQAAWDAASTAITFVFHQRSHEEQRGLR

[15] = target: Aryl hydrocarbon receptor (Homo sapiens, UniProt P35869); assay: Luminescence-based cell-based high throughput dose response assay for activators of the Aryl Hydrocarbon Receptor (AHR). [Related pubchem assays: 2796 (Primary screen (AHR activators in singlicate)), 2845 (Confirmation screen (AHR activators in triplicate)), 434939 (Counterscreen (PXR activators in triplicate)), 2804 (Summary (AHR activators))]; type: ADME
CAAX prenyl protease 2 [16] = target: T5, CAAX prenyl protease 2 (Homo sapiens, UniProt Q9Y256); assay: inhibition of Ras-converting CAAX protease Rce1 – biochemical, yeast membranes, quenched-peptide fluorescence, cherry-pick, dose response (AID 588849)
T5 sequence (Q9Y256 whole entry): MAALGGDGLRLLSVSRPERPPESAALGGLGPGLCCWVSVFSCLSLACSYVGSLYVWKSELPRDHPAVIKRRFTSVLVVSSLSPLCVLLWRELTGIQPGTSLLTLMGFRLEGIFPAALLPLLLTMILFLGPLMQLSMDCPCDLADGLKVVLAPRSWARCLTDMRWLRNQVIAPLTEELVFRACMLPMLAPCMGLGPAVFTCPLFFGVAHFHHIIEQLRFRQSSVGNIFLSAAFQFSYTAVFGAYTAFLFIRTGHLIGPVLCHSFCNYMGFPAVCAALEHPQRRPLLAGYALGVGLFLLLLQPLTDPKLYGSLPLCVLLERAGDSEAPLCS

CAAX prenyl protease 2 [17] = target: T6, CAAX prenyl protease 2 (Saccharomyces cerevisiae S288c, UniProt Q03530); type: biochemical
T6 sequence (Q03530 whole entry): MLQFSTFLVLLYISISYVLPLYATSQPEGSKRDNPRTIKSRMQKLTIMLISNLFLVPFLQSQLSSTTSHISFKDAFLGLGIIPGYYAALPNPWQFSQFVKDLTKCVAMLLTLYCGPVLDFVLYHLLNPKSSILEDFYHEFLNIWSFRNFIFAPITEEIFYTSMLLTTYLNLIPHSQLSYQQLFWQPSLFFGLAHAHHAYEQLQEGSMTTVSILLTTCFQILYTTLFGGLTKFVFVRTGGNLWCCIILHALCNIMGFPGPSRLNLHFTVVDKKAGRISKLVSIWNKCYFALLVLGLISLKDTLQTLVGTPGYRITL

Trypsin = Trypsin (Sus scrofa, UniProt P00761); assay: trypsin protease activity blockade – biochemical, quenched peptide fluorescence, cherry-pick, selectivity assay for Rce1 protease inhibitor project, dose response (AID 488789)
[18] = target: T7, DNA repair protein RAD52 homolog (Homo sapiens, UniProt P43351); type: functional, biochemical
T7 sequence (P43351 whole entry): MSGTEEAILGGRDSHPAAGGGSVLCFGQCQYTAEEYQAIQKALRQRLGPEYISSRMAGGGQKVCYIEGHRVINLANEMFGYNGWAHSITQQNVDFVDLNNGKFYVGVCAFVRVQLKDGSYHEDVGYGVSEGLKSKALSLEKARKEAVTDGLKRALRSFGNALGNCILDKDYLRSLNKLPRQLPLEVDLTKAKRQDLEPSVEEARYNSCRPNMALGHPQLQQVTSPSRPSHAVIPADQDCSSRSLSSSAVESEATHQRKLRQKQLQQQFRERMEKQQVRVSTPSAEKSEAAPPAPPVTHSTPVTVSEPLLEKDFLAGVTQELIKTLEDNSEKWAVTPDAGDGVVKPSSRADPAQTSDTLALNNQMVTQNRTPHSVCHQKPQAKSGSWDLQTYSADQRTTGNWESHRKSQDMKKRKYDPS

HeLa = assay: ATP-based viability loss in HeLa cells – cell-based, CellTiter-Glo luminescence, cherry-pick samples, cytotoxicity control for MITF activator project, dose response (AID 540259); type: functional; conditions: Homo sapiens

Chain of Epstein-Barr nuclear antigen 1 (P03211 whole entry): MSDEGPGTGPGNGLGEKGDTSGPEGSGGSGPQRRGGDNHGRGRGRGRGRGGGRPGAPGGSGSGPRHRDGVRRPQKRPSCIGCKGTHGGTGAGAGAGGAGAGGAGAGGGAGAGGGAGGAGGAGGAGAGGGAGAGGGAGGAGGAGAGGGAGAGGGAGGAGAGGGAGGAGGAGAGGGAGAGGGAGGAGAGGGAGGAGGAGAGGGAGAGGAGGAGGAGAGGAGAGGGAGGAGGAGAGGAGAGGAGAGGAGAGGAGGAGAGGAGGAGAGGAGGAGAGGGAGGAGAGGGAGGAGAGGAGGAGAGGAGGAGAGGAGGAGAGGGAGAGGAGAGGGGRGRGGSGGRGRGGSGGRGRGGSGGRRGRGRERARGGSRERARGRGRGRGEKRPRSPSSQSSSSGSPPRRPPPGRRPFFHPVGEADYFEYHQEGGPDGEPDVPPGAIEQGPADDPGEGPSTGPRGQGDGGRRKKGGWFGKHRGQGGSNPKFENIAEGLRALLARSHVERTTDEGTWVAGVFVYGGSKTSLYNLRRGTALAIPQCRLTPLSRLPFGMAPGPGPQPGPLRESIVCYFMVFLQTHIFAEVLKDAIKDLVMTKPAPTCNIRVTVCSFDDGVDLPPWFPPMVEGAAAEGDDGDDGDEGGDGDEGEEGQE
Chain of Lytic switch protein BZLF1 (P03206 whole entry): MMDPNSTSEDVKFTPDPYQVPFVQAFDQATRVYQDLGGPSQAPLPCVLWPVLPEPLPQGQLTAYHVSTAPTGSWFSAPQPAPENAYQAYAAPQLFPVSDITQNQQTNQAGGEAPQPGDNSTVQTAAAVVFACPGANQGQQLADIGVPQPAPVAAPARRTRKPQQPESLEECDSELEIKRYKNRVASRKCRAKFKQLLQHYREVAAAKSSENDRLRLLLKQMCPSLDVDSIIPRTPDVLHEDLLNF
Chain of Peroxisome proliferator-activated receptor gamma/Nuclear receptor coactivator 3 (P37231 whole entry): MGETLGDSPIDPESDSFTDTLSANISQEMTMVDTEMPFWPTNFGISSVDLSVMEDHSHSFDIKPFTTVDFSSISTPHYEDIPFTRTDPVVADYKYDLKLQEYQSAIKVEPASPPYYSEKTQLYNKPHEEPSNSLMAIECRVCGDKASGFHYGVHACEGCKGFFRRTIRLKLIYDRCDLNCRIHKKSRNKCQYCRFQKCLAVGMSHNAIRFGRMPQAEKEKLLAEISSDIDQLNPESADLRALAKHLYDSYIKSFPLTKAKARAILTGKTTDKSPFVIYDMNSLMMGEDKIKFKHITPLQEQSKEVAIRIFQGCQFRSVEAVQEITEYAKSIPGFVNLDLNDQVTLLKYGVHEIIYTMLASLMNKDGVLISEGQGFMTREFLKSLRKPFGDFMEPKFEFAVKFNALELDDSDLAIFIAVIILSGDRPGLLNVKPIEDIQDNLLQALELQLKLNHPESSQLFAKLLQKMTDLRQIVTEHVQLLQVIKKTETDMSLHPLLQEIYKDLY
Chain of Peroxisome proliferator-activated receptor gamma/Nuclear receptor coactivator 3 (Q9Y6Q9 whole entry, further chain): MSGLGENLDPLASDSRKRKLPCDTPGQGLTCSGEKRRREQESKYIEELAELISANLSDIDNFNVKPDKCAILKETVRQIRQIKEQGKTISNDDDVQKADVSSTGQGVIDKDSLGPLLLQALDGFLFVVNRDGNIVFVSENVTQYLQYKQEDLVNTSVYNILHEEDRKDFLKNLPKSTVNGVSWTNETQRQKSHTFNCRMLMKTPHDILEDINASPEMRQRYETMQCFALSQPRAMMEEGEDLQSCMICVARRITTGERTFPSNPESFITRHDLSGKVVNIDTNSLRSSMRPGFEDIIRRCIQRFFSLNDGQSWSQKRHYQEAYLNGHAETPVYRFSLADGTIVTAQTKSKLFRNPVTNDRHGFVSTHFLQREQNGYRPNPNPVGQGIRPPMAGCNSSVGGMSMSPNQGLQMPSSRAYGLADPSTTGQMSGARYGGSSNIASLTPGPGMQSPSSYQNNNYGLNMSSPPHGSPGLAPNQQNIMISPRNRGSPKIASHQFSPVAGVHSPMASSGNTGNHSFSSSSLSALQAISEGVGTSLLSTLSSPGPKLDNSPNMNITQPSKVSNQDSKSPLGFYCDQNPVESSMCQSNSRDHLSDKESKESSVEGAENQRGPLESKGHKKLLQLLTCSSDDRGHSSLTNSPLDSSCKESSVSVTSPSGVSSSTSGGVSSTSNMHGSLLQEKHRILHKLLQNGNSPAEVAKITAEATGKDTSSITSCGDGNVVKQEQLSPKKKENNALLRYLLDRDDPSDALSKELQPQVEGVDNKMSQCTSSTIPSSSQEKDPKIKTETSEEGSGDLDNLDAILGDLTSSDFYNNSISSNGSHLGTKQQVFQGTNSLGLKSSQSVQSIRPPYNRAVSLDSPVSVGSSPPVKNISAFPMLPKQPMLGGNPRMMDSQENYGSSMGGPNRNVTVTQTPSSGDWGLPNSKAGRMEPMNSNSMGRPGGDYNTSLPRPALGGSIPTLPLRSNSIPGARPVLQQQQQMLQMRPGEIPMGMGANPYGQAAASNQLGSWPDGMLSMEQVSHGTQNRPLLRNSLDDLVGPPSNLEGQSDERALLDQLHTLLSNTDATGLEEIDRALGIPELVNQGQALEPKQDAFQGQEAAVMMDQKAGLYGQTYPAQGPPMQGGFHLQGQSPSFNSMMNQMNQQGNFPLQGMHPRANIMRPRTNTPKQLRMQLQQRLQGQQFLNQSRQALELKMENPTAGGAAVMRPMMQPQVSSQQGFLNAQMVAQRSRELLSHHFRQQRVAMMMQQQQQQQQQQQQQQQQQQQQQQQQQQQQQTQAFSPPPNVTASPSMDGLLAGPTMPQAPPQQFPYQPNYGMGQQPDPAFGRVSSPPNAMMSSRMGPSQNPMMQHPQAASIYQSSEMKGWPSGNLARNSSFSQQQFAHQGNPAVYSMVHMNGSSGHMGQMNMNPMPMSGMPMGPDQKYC
Chain of Peroxisome proliferator-activated receptor gamma/Nuclear receptor coactivator 1 (P37231 whole entry): as the sequence (P37231 whole entry) above
Chain of Peroxisome proliferator-activated receptor gamma/Nuclear receptor coactivator 1 (Q15788 whole entry, further chain): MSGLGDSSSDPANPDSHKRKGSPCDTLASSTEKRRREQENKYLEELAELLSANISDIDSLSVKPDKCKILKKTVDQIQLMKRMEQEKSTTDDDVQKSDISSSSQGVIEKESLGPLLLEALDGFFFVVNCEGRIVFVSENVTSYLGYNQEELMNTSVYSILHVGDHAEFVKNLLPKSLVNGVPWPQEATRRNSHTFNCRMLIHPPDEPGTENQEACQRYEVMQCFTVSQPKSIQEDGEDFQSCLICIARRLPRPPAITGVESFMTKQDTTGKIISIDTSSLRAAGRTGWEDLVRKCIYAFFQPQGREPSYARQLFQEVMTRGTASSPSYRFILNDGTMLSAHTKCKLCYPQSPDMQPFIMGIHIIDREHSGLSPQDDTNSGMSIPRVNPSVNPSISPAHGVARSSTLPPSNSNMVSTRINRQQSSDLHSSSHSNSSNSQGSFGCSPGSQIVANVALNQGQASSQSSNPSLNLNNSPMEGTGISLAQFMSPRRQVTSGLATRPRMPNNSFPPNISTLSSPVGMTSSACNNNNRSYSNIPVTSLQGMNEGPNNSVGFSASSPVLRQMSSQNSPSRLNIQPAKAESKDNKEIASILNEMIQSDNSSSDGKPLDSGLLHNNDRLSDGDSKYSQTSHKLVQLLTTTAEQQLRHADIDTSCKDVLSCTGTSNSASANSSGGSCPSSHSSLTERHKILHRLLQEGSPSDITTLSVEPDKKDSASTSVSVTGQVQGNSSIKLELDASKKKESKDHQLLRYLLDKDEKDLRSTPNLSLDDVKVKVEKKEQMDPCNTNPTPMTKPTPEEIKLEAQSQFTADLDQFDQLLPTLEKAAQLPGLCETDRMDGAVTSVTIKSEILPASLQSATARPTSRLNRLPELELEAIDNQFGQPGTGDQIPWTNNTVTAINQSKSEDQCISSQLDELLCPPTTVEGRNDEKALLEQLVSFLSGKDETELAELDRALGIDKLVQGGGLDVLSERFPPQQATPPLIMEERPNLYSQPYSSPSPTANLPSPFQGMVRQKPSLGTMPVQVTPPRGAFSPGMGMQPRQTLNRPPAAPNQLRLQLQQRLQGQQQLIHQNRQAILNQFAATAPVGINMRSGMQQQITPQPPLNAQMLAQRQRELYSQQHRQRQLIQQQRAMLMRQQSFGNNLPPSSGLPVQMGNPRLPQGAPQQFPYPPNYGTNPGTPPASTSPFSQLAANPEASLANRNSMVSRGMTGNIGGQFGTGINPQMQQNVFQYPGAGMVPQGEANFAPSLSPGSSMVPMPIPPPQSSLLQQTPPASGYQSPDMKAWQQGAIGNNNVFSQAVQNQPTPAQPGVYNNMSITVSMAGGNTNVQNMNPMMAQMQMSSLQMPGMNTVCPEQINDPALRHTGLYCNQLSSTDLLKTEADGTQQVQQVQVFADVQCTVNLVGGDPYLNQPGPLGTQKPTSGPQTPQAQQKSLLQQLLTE
Chain of Trypsin (P00761 whole entry): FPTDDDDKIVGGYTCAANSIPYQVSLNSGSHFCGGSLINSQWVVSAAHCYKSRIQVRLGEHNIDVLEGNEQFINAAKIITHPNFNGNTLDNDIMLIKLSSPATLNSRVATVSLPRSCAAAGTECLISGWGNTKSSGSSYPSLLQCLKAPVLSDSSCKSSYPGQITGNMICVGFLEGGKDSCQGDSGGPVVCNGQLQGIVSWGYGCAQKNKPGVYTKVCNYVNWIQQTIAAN

## O=C(CCCCCn1c(=S)[nH]c2cc3c(cc2c1=O)OCO3)N1CCN(Cc2ccccc2)CC1
[1]
  IC50: > 111 µM (not active)
[2]
  IC50: 14.9 µM (not active)

## COc1cccc(N2CC(=O)C(c3nc(O)c4ccccc4n3)=C2N)c1
[1]
  IC50: > 111 µM (not active)
[2]
  IC50: 10.2 µM (not active)
[3]
  EC50: 0.133 µM (active)

## CCOC(=O)c1cnc2c(C)c(Cl)ccc2c1N1CCOCC1
[4]
  EC50: > 79.4 µM (not active)
[5]
  EC50: > 79.4 µM (not active)
[6]
  EC50: > 79.4 µM (not active)

## Cc1nc2cc(Nc3nnc(-c4ccccc4)c4ccccc34)ccc2n1C
H4
  EC50: 31.4 µM (active)
[7]
  EC50: < 0.1 µM (active)
[8]
  EC50: 2.91 µM (active)
[9]
  EC50: > 12 µM (not active)
[10]
  EC50: > 12 µM (not active)

## CC1=NN(C(=O)Cn2ccc([N+](=O)[O-])n2)C(O)(C(F)(F)F)C1 (configuration not stated)
[4]
  EC50: > 79.4 µM (not active)
[5]
  EC50: > 79.4 µM (not active)
[6]
  EC50: > 79.4 µM (not active)

## c1ccc(-c2cnc(-c3ccccc3)nc2)cc1
HT-1080
  EC50: > 50 µM (not active)
[11]
  EC50: 14.3 µM (active)

## COc1cccc(-c2ccc(C#N)c(SCC(=O)NCCc3ccc(Cl)cc3)n2)c1
[12]
  IC50: 4.58 µM (active)
[13]
  IC50: 6.45 µM (active)

## CN(C)CCCN1C(=O)c2cccc3cccc(c23)C1=O
[14]
  AC50: 11.1 µM (active)
[15]
  EC50: 0.815 µM (active)
CAAX prenyl protease 2 [16]
  AC50: 5.4 µM (active)
CAAX prenyl protease 2 [17]
  AC50: 68.1 µM (active)
Trypsin
  AC50: 38 µM (active)
[18]
  AC50: 16.4 µM (active)

## FC(F)Oc1ccc(/N=C2\SCC3CCCCN23)cc1 (configuration not stated)
H4
  EC50: 30.2 µM (inconclusive)
[7]
  EC50: < 0.1 µM (active)
HeLa
  AC50: 342 µM (active)
[8]
  EC50: 0.405 µM (active)
[9]
  EC50: 0.34 µM (active)
[10]
  EC50: 1.04 µM (active)
